Laboratory results as given in ChEMBL document CHEMBL1157898 (Bioorg Med Chem Lett, 2010).
Calls of active or inactive are those of the source.

Key:
[1] = biological target: Ribosomal protein S6 kinase alpha-1 (Homo sapiens) (UniProt Q15418); test: Inhibition of RSK1
[2] = biological target: T1, Interleukin-1 receptor-associated kinase 4 (Homo sapiens) (UniProt Q9NWZ3); test: Inhibition of IRAK4 at 5 uM
T1 sequence (whole entry): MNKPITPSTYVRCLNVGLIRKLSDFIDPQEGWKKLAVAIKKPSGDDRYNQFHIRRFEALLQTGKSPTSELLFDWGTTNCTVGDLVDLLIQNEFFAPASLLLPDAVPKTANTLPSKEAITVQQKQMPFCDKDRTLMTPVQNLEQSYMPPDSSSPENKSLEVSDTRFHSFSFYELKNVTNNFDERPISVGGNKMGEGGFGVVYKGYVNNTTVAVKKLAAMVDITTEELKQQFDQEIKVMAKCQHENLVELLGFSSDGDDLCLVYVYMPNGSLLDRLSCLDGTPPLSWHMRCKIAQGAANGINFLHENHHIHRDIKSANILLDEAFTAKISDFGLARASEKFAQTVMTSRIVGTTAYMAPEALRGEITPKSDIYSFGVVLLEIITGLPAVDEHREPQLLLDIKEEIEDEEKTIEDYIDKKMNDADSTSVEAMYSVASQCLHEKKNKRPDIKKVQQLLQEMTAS

[3] = biological target: Ribosomal protein S6 kinase alpha-5 (Homo sapiens) (UniProt O75582); test: Inhibition of MSK1
[4] = biological target: T2, Serine/threonine-protein kinase Sgk1 (Homo sapiens) (UniProt O00141); test: Inhibition of SGK1
T2 sequence (whole entry): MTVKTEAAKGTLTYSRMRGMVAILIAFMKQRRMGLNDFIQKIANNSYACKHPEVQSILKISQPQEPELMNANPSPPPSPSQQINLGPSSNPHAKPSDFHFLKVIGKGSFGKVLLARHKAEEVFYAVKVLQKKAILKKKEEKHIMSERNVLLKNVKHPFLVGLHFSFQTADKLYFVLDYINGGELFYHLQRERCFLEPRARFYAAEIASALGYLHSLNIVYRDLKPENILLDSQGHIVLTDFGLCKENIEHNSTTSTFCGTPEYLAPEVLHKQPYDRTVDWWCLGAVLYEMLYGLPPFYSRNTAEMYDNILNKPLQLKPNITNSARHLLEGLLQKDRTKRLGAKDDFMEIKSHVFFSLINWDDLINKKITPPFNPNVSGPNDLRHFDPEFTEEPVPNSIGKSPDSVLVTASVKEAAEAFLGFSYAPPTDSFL

[5] = biological target: Ribosomal protein S6 kinase beta-1 (Homo sapiens) (UniProt P23443); test: Inhibition of p70S6K
[6] = biological target: T3, MAP kinase-activated protein kinase 5 (Homo sapiens) (UniProt Q8IW41); test: Inhibition of PRAK
T3 sequence (whole entry): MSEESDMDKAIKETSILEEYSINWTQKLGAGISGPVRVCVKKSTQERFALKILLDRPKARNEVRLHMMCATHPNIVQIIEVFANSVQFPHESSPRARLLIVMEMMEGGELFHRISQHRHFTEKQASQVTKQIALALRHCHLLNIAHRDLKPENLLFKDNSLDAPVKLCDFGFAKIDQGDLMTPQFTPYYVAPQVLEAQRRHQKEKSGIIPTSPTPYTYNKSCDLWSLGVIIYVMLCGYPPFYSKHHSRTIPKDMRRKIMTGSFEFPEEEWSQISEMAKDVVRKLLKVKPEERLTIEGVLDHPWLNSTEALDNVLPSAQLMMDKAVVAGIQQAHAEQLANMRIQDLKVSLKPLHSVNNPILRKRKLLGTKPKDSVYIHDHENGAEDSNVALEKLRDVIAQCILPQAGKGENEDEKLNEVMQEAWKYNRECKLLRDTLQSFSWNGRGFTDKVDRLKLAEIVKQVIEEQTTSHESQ

[7] = biological target: MAP kinase-activated protein kinase 2 (Homo sapiens) (UniProt P49137); test: Inhibition of MAPKAPK2
[8] = biological target: Mitogen-activated protein kinase kinase kinase kinase 4 (Homo sapiens) (UniProt O95819); test: Inhibition of HGK
[9] = biological target: Tyrosine-protein kinase Fyn (Homo sapiens) (UniProt P06241); test: Inhibition of FYN
[10] = biological target: Rho-associated protein kinase 2 (Homo sapiens) (UniProt O75116); test: Inhibition of ROCK2
[11] = biological target: T4, Serine/threonine-protein kinase 3 (Homo sapiens) (UniProt Q13188); test: Inhibition of MST2
T4 sequence (whole entry): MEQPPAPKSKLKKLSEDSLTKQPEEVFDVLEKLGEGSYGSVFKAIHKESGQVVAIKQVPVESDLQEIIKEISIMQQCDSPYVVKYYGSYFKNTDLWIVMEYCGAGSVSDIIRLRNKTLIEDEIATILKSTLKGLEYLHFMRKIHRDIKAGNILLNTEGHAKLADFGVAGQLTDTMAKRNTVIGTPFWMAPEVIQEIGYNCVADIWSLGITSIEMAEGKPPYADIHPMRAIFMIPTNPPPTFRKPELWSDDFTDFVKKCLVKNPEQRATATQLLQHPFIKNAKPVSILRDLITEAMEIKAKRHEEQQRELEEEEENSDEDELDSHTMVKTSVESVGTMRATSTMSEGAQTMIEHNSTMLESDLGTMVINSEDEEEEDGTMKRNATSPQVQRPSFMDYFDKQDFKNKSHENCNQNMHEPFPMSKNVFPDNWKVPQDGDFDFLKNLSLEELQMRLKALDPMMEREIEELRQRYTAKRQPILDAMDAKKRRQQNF

[12] = biological target: Serine/threonine-protein kinase MARK1 (Homo sapiens) (UniProt Q9P0L2); test: Inhibition of MARK1
[13] = biological target: T5, Protein kinase C zeta type (Homo sapiens) (UniProt Q05513); test: Inhibition of PKCzeta
T5 sequence (whole entry): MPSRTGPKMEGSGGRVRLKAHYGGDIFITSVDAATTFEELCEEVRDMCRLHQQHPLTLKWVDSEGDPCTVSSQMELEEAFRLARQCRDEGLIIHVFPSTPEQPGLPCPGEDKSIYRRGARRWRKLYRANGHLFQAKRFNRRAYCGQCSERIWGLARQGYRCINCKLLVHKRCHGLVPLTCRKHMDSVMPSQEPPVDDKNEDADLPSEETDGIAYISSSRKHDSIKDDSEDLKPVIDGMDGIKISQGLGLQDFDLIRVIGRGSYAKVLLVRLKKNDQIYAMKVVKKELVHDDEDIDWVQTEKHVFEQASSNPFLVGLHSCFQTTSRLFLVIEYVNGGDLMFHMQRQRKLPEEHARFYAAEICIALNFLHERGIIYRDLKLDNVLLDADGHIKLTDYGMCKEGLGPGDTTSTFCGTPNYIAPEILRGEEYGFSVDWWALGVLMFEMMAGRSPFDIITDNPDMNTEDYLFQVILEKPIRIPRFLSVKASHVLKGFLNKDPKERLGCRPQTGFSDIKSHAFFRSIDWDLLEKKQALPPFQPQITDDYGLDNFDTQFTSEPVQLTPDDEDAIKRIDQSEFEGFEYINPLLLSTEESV

[14] = biological target: Serine/threonine-protein kinase pim-2 (Homo sapiens) (UniProt Q9P1W9); test: Inhibition of PIM2
[15] = biological target: Glycogen synthase kinase-3 beta (Homo sapiens) (UniProt P49841); test: Inhibition of GSK3-beta

Measured: inhibition

Sequence of Ribosomal protein S6 kinase beta-1 (Homo sapiens) (P23443 whole entry, looked up): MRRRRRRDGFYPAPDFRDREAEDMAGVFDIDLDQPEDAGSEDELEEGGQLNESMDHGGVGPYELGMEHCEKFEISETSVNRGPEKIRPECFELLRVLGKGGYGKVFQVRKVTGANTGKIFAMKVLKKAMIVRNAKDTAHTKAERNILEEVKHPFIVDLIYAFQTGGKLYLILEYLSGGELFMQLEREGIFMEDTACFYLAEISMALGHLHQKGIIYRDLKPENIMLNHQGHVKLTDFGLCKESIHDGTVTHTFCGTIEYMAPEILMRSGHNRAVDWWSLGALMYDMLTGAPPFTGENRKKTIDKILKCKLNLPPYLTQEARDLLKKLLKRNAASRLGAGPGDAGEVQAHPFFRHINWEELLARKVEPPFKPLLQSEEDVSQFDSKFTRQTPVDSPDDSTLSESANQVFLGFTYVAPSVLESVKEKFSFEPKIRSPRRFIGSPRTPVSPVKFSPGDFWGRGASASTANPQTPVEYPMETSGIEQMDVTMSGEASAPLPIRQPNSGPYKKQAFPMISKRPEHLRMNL
Sequence of Rho-associated protein kinase 2 (Homo sapiens) (O75116 whole entry, looked up): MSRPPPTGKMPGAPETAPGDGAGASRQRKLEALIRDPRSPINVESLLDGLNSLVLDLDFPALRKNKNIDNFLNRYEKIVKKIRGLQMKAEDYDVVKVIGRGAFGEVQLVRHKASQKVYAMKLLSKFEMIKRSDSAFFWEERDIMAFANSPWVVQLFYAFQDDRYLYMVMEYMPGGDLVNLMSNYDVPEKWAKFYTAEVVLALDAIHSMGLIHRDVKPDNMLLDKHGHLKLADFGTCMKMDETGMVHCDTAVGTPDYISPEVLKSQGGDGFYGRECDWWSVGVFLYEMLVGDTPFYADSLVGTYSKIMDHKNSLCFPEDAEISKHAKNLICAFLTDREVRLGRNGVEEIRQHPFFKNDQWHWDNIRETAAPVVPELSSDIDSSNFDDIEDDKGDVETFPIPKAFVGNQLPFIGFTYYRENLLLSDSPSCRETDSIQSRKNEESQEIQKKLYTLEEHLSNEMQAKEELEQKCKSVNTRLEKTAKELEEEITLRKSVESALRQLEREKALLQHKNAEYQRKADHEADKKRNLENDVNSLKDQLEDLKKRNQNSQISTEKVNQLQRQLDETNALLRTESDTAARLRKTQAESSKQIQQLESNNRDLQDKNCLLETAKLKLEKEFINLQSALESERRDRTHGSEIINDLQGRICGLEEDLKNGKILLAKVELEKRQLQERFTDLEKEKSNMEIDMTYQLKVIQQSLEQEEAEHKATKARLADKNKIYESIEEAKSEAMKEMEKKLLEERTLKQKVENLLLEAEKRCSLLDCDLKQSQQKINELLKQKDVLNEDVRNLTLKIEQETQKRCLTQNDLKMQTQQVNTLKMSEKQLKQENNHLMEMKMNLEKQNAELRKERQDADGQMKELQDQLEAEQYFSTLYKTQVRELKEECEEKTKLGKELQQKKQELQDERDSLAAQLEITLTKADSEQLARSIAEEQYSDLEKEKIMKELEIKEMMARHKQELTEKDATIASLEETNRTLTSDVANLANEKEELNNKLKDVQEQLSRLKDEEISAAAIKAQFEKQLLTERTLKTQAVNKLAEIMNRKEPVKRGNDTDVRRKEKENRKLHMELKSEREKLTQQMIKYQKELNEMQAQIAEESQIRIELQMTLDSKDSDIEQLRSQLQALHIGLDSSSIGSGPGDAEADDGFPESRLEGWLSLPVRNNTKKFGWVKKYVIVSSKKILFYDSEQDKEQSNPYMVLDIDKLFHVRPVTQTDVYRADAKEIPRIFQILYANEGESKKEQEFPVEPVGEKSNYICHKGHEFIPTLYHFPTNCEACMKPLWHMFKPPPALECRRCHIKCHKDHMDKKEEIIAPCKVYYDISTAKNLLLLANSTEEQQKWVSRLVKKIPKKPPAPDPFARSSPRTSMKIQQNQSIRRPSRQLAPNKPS
Sequence of Mitogen-activated protein kinase kinase kinase kinase 4 (Homo sapiens) (O95819 2-1239 limits assumed): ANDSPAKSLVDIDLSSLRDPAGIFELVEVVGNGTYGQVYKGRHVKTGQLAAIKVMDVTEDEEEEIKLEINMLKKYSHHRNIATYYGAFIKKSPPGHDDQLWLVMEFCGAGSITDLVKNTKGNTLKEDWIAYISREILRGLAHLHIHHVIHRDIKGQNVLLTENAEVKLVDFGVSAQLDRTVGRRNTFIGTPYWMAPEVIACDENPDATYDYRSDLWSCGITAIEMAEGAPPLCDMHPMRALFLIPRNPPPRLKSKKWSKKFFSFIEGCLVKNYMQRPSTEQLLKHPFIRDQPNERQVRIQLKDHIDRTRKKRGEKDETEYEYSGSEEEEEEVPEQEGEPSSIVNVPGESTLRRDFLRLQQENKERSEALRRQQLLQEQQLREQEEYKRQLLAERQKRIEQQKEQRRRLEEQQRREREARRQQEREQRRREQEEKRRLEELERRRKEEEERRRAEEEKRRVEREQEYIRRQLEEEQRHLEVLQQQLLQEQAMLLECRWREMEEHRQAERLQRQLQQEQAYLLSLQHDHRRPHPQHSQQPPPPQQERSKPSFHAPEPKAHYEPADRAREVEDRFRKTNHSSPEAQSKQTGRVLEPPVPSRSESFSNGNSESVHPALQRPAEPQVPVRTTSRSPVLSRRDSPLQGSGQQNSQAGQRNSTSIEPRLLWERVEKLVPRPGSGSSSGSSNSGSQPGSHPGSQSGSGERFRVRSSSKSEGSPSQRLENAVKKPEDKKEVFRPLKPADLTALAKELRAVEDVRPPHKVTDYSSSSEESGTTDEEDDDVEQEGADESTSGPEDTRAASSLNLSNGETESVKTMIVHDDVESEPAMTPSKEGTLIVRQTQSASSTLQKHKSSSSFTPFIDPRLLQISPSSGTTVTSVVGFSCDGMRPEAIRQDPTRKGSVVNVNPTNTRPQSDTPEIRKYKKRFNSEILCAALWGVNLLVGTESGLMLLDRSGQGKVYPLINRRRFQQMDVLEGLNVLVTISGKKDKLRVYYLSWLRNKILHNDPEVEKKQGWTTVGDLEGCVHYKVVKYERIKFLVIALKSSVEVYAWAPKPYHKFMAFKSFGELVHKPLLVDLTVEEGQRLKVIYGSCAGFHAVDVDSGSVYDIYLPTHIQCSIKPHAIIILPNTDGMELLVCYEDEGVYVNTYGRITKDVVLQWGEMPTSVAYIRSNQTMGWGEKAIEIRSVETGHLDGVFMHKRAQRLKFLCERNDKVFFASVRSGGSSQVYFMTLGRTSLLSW
Sequence of Ribosomal protein S6 kinase alpha-1 (Homo sapiens) (Q15418 whole entry): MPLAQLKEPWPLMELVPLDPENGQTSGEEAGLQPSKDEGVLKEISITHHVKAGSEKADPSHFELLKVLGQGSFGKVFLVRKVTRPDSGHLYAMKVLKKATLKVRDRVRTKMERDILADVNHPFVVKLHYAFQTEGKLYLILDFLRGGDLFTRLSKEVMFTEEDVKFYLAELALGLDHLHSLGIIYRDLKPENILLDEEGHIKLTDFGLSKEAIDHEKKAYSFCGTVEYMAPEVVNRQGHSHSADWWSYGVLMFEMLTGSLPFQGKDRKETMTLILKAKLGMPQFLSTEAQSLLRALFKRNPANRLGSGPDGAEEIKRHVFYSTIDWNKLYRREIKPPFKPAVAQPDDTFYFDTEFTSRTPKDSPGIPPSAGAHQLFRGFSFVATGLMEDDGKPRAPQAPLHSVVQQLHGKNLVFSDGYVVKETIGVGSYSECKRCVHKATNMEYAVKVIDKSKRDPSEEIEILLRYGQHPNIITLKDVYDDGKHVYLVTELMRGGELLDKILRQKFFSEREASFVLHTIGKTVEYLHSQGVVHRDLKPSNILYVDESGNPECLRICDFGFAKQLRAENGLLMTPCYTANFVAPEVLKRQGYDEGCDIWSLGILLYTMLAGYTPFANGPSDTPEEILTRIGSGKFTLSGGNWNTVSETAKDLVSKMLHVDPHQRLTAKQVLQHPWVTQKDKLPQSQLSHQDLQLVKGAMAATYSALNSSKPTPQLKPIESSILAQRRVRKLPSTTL
Sequence of Glycogen synthase kinase-3 beta (Homo sapiens) (P49841 whole entry, looked up): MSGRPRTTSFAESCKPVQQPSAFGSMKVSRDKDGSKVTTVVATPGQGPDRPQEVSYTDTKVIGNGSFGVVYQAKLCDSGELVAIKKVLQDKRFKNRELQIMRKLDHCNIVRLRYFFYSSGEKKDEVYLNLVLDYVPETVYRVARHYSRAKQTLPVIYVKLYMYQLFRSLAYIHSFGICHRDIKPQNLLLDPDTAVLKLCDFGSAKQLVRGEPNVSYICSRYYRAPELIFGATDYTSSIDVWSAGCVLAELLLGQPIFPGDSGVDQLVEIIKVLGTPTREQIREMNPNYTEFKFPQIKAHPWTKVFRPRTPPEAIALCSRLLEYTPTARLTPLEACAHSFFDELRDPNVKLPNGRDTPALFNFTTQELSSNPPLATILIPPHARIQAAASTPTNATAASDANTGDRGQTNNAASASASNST
Sequence of Tyrosine-protein kinase Fyn (Homo sapiens) (P06241 2-537 limits assumed): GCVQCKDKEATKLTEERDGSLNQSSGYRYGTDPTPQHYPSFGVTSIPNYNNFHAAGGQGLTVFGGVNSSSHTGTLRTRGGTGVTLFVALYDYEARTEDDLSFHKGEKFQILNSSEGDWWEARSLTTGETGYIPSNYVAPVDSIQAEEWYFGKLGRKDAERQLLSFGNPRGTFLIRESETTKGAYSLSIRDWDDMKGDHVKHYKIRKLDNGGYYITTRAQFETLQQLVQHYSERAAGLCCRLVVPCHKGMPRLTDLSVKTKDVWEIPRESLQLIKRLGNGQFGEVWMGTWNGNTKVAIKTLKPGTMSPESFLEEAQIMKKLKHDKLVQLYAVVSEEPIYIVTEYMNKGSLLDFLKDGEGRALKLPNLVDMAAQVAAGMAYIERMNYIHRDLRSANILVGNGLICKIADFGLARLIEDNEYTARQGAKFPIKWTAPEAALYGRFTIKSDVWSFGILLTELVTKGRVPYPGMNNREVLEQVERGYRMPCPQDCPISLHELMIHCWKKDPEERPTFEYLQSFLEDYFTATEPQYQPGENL

O=C1Nc2ccc(Cl)cc2/C1=C\c1ccccc1[N+](=O)[O-]
inactive: [1] | [2] | [3] | [4] | [5] | [6] | [7] | [8] | [9] | [10] | [11] | [12] | [13] | [14] | [15]

O=C1Nc2ccc(Cl)cc2/C1=C\c1ccccc1S(=O)(=O)O
inactive: [1] | [2] | [3] | [4] | [5] | [6] | [7] | [8] | [9] | [10] | [11] | [12] | [13] | [14] | [15]

NC(=O)Cc1ccc(/C=C2/C(=O)Nc3ccc(Cl)cc32)cc1
inactive: [1] | [2] | [3] | [4] | [5] | [6] | [7] | [8] | [9] | [10] | [11] | [12] | [13] | [14] | [15]

O=C1Nc2ccc(Cl)cc2/C1=C\c1cc(F)cc(F)c1
inactive: [1] | [2] | [3] | [4] | [5] | [6] | [7] | [8] | [9] | [10] | [11] | [12] | [13] | [14] | [15]

O=C1Nc2ccc(Cl)cc2/C1=C\c1ccc2c(c1)OCO2
inactive: [1] | [2] | [3] | [4] | [5] | [6] | [7] | [8] | [9] | [10] | [11] | [12] | [13] | [14] | [15]

CCN(CC)CCNC(=O)c1c(C)[nH]c(/C=C2\C(=O)Nc3ccc(F)cc32)c1C [SUNITINIB]
inactive: [1] | [2] | [3] | [4] | [5] | [6] | [7] | [8] | [9] | [10] | [11] | [12] | [13] | [14] | [15]

COc1cc(/C=C2/C(=O)Nc3ccc(Cl)cc32)cc(OC)c1OC
inactive: [1] | [2] | [3] | [4] | [5] | [6] | [7] | [8] | [9] | [10] | [11] | [12] | [13] | [14] | [15]
